Key:
[1] = Water activity value of pharmaceutical additives, humidity conditions versus dry state; type: physicochemical; conditions: N = 3; for Water activity value, Opened / Water activity value, Sealed: additive alone; for Water activity value, Opened: 25° C. and 60% RH (opened) for 3 days; for Water activity value, Sealed: in bottles at 25° C. for 3 days in the presence of a desiccant; for Water activity value, Difference: opened minus sealed
Description: A water activity meter (AQUA LAB Series 4TE (AQUA LAB)) was used to measure the water activity value of each pharmaceutical composition (including a capsule shell) at 25° C.
Pharmaceutical additives (5000 mg each) used in Examples 4 to 11 and Comparative Examples 1 to 2 were allowed to stand in bottles (30 mL) at 25° C. for 3 days in the presence of a desiccant (2 g), and the water activity value was measured under the same conditions as those of Experimental Example 1. Further, the same samples were allowed to stand in bottles under storage conditions of 25° C. and 60% RH (opened) for 3 days, and the water activity value was measured under the same conditions as those of Experimental Example 1
The difference between the water activity value after the storage in the opened state and the water activity value after the storage in the sealed state is summarized in Table 7.

[2] = test system: epidermal growth factor receptor (EGFR) mutant kinase; conditions: disclosed in Patent literature 1 (WO 2013/108754); cited from earlier work
[3] = Stability of mixtures with pharmaceutical additives, sealed bottles in aluminum bags, 25° C. or 40° C., related substance (HPLC); type: physicochemical; conditions: dimer of compound A (RRT about 1.34), N = 2, values less than 0.05% (quantitative limit) are reference values
Description: (§1) The amounts of generated related substances were measured by a high performance liquid chromatographic method (an HPLC method). The amount of a related substance is calculated by measuring the peak area of each related substance contained in a pharmaceutical composition by the HPLC method, and dividing the peak area of a dimer of compound A (a related substance detected at a relative retention time of about 1.34) by the total peak area of all related substances, including compound A or a pharmaceutically acceptable salt thereof and the dimer of compound A. • Measurement wavelength: 210 nm • Column: YMC-Triart C18 (4.6 mm×150 mm, 3 μm) • Column temperature: a constant temperature around 40° C. • Mobile phase: A mixed solution of 45 mM perchloric acid aqueous solution and acetonitrile • Flow rate: about 1.2 mL/min. • Injection amount: 10 μg (corresponding to compound A) (Measurement of Water Activity)
The mixtures obtained in Examples 4 to 11 and Comparative Examples 1 to 2, as well as compound A monomethanesulfonate, were put into plastic bottles. […] After the storage, the amount of a related substance (the amount of a dimer of compound A at a relative retention time of about 1.34) was measured under the same conditions as those of Experimental Example 1. […]

[4] = Stability of mixture with milled lactose hydrate in capsules, sealed plastic bottles, 25° C. and 60% RH, related substance (HPLC); type: physicochemical; conditions: dimer of compound A (RRT about 1.34)
Description: as §1
After 1.171 mg of compound A monomethanesulfonate and 98.829 mg of milled lactose hydrate (Pharmatose 200 M, DFE Pharma) were mixed, the obtained mixture was filled into hypromellose capsules. […] After the storage, the amount of a related substance (the amount of a dimer of compound A at a relative retention time of about 1.34) was measured under the same conditions as those of Experimental Example 1. […]

OC[C@H]1O[C@@](CO)(O[C@H]2O[C@H](CO)[C@@H](O)[C@H](O)[C@H]2O)[C@@H](O)[C@@H]1O [Sucrose]
Water activity value, Opened [1]: 0.43
Water activity value, Sealed [1]: 0.38
Water activity value, Difference [1]: 0.05

OC[C@@H](O)[C@@H](O)[C@H](O)[C@H](O)CO [Mannitol]
Water activity value, Opened [1]: 0.45
Water activity value, Sealed [1]: 0.35
Water activity value, Difference [1]: 0.10

C=CC(=O)N1CC[C@@H](Oc2nc(Nc3ccc(N4CCC(N5CCN(C)CC5)CC4)cc3)c(C(N)=O)nc2CC)C1 [compound A, 5-{[(3R)-1-Acryloylpyrrolidin-3-yl]oxy}-6-ethyl-3-({4-[4-(4-methylpiperazin-1-yl)piperidin-1-yl]phenyl}amino)-pyrazine-2-carboxamide]
inhibitory action on an epidermal growth factor receptor (EGFR) mutant kinase [2]: confirmed

O.OC[C@H]1O[C@@H](O[C@H]2[C@H](O)[C@@H](O)C(O)O[C@@H]2CO)[C@H](O)[C@@H](O)[C@H]1O (stereo partly shown) [Lactose hydrate]
Water activity value, Opened [1]: 0.46
Water activity value, Sealed [1]: 0.30
Water activity value, Difference [1]: 0.16

C=CC(=O)N1CC[C@@H](Oc2nc(Nc3ccc(N4CCC(N5CCN(C)CC5)CC4)cc3)c(C(N)=O)nc2CC)C1.CS(=O)(=O)O [Compound A monomethanesulfonate (alone), 5-{[(3R)-1-acryloylpyrrolidin-3-yl]oxy}-6-ethyl-3-({4-[4-(4-methylpiperazin-1-yl)piperidin-1-yl]phenyl}amino)-pyrazine-2-carboxamide monomethanesulfonate]
Amount of related substance, 25° C., After 1 month ([3]; 25° C.): 0.03%
Amount of related substance, 40° C., After 1 month ([3]; 40° C.): 0.03%
Amount of related substance, 25° C. · 60% RH After 1 month [4]: 0.44%

OC[C@H]1O[C@H](O[C@H]2O[C@H](CO)[C@@H](O)[C@H](O)[C@H]2O)[C@H](O)[C@@H](O)[C@@H]1O [Trehalose]
Water activity value, Opened [1]: 0.40
Water activity value, Sealed [1]: 0.32
Water activity value, Difference [1]: 0.08

Source: US10188737B2, “Stabilized pharmaceutical composition” (ASTELLAS PHARMA INC., priority 2015, dated 2019)
